How the values were obtained:
[1] = tested on: acetyl coenzyme A carboxylase (ACC); assay: ACC phosphorylation in HepG2 cells, Western blot; type: cell-based, human; settings: 20 μM, 1, 2, and 3 days (FIG. 12)
Description: HepG2 cells were treated with 20 μg/ml14R-(+)-THP for 0.5, 2, or 8 hours. Cells were lysed, and 50 μg protein from each sample was subjected to SDS-PAGE, followed by Western blotting using anti-phosphorylated ACC (Cell Signaling) and subsequently reprobed with antibody against β-actin.
(§1) Cells were harvested after 1, 2, and 3 days treatment and western blot analysis was conducted using antibodies directed to LDLR and PCSK9. Chicken anti-LDLR was purchased from Abeam, the mouse anti-PCSK9 was purchased from Cayman Chemicals, and anti-pACC was purchased from Cell Signaling.

LDLR = LDLR protein expression in HepG2 cells, Western blot; type: cell-based, human; settings: 20 μM, 1, 2, and 3 days
Description: as §1
(§2) To determine whether the stimulatory effects of statins on LDLR protein expression could be enhanced by some new compounds invented herein, HepG2 cells were untreated or treated with a low dose of rosuvastatin (RSV) at 0.3 and 1 uM concentration in the absence or the presence of Compound 127(+), or treated with low concentrations of Compound 127(+) alone for 2 days. Western blot analysis was conducted to examine LDLR and PCSK9 protein levels. Compound 127(+) is the single enantiomer of compound 127 with a positive optical rotation. […] Furthermore, the inducing effects of RSV on PCSK9 protein levels were anatagonized by compound 127(+).
(§3) Chicken anti-LDLR was purchased from Abeam and the mouse anti-PCSK9 was purchased from Cayman Chemicals. HepG2 cells cultured in 60-mm dishes were incubated overnight in medium containing 0.5% fetal bovine serum prior to the addition of compounds at 20 uM concentration for 1-3 days. Total cell lysate was isolated and 50 μg of protein was separated on SDS-PAGE and transferred to nitrocellulose membrane for immunoblotting with anti-LDLR, anti-PCSK9, and anti-p-ACC.

PCSK9 = PCSK9 protein expression in HepG2 cells, Western blot; type: cell-based, human; settings: 20 μM, 1, 2, and 3 days
Description: as §1, §2, §3

hyperlipidemic rabbits [2] = assay: Lipid lowering effects and blood chemistry in hyperlipidemic rabbits; settings: for Body weight: after 14 days of drug treatment; for Body weight / ALP / ALT / AST / CK / CREA / GLU / HDL-C / LDH / LDL-C / TC / TG: mean, n = 6; for serum total cholesterol levels, treatment day 0: day 0 (before the drug treatment), n = 6, in mmol/L (unit assumed); for serum total cholesterol levels, treatment day 0 / serum total cholesterol levels, treatment day 4 / serum total cholesterol levels, treatment day 7 / serum total cholesterol levels, treatment day 10 / serum total cholesterol levels, treatment day 14: mean ± SD; for serum total cholesterol levels, treatment day 4: day 4, oral gavage once a day; for serum total cholesterol levels, treatment day 4 / serum total cholesterol levels, treatment day 7: 128(+)/128(−) 30 mg/kg, SMV/ATV 3 mg/kg; for serum total cholesterol levels, treatment day 7: day 7, oral gavage once a day; for serum total cholesterol levels, treatment day 10: day 10, doses increased after day 7 to 60 mg/kg (128(+)/128(−)) and 10 mg/kg (SMV/ATV), in mmol/L (unit assumed); for serum total cholesterol levels, treatment day 14: day 14, doses increased after day 7 to 60 mg/kg (128(+)/128(−)) and 10 mg/kg (SMV/ATV); for ALP / ALT / AST / CK / CREA / GLU / HDL-C / LDH / LDL-C / TC / TG: serum after 14 days of drug treatment
Description: (§4) Forty-two male Japanese rabbits were fed the cholesterol enriched rabbit diet for two weeks to induce hypercholesterolemia. […] Serum samples were collected at day 0 (before the drug treatment) and day 7. […] All tested animals were sacrified at the end of a total of 14 days treatment and serum samples were analyzed for TC, LDL-C, TG, and HDL-C. In addition to lipid profiles, a number of biochemical parameters were also analyzed to aseesee the effects of drug treatments on liver function, muscle function, kidney function, and heart function.

hyperlipidemic rabbits [3] = settings: rabbit, in vivo
Description: as §4

LDLR mRNA = LDLR mRNA expression in HepG2 cells, quantitative real-time RT-PCR; type: cell-based, human; settings: indicated concentrations, 24 hours (FIG. 15A)
Description: Activities of some compounds of Formulas I, II, III, and IV on LDLR mRNA expression were determined. HepG2 cells were treated with new compounds individually at a dose less than or equal to 10 μM for 24 hours. Total RNA was harvested for quantitative real-time RT-PCR analysis using the method described in Example 16B. […] In these experiments, berberine chloride was included for comparison.
The time-dependent effects of compounds of Formula I, II, III, and IV on the upregulation of LDLR mRNA and the inhibition of PCSK9 mRNA expression were examined (Horton J D, Cohen J C, Hobbs H I T. “Molecular biology of PCSK9: its role in LDL metabolism” TRENDS in Biochemical Sciences 2007; 32:71-77). HepG2 cells were treated with new compounds individually at 20 uM dose for 1 day, 2 day, and 3 days. Total RNA was isolated and 2 μg was used to generate cDNA in a reaction containing random primers and M-MLV at 37° C. for 1 hour in a volume of 25 μl. Real-time PCR was performed on the cDNA using MCEP REALPLEX 2 SYSTEM (Eppendorf) and Universal MasterMix (Applied Biosystems). Human LDLR, PCSK9, and GAPDH Pre-Developed TaqMan Assay Reagents (Applied Biosystems) were used to assess the levels of mRNA expressions in HepG2. The levels of LDLR mRNA or PCSK9 mRNA were normalized to that of GAPDH. Each RNA samples was assayed in triplicate. The abundance of LDLR mRNA or PCSK9 mRNA in untreated cells was defined as 1, and the amounts of LDLR mRNA or PCSK9 from compound-treated cells were plotted relative to that value (FIG. 10). The data shown are mean±s.d.
Total RNA was harvested for quantitative real-time RT-PCR analysis using method described in Examples 16B.
The effects of 23 compounds on the mRNA expressions of LDLR and PCSK9 were examined using quantitative real-time RT-PCR assays. HepG2 cells were treated with various compounds at 10 and 40 uM concentrations for 24 hours. Total RNA was isolated and […] was used to generate cDNA in a reaction containing random primers and M-MLV at 37° C. for 1 h in a volume of 25 μl. Real-time PCR was performed on the cDNA using MCEP REALPLEX 2 SYSTEM (Eppendorf) and Universal MasterMix (Applied Biosystems). Human LDLR, PCSK9, and GAPDH Pre-Developed TaqMan Assay Reagents (Applied Biosystems) were used to assess the levels of mRNA expressions in HepG2. The levels of LDLR and PCSK9 mRNA were normalized to that of GAPDH. Each RNA samples was assayed in duplicate. The fold activity was calculated by dividing mRNA abundance in compound treated cells with that of control.

PCSK9 mRNA = PCSK9 mRNA expression in HepG2 cells, quantitative real-time RT-PCR; type: cell-based, human; settings: indicated concentrations, 24 hours (FIG. 15B)
Description: The time-dependent effects of compounds of Formula I, II, III, and IV on the upregulation of LDLR mRNA and the inhibition of PCSK9 mRNA expression were examined (Horton J D, Cohen J C, Hobbs H I T. “Molecular biology of PCSK9: its role in LDL metabolism” TRENDS in Biochemical Sciences 2007; 32:71-77). HepG2 cells were treated with new compounds individually at 20 uM dose for 1 day, 2 day, and 3 days. Total RNA was isolated and 2 μg was used to generate cDNA in a reaction containing random primers and M-MLV at 37° C. for 1 hour in a volume of 25 μl. Real-time PCR was performed on the cDNA using MCEP REALPLEX 2 SYSTEM (Eppendorf) and Universal MasterMix (Applied Biosystems). Human LDLR, PCSK9, and GAPDH Pre-Developed TaqMan Assay Reagents (Applied Biosystems) were used to assess the levels of mRNA expressions in HepG2. The levels of LDLR mRNA or PCSK9 mRNA were normalized to that of GAPDH. Each RNA samples was assayed in triplicate. […]
Total RNA was harvested for quantitative real-time RT-PCR analysis using method described in Examples 16B. […]
The effects of 23 compounds on the mRNA expressions of LDLR and PCSK9 were examined using quantitative real-time RT-PCR assays. […] The fold activity was calculated by dividing mRNA abundance in compound treated cells with that of control.

SMILES	phosphorylation of ACC [1]	LDLR protein levels (LDLR)	expression of PCSK9 (protein) (PCSK9)	Body weight (hyperlipidemic rabbits [2]) [kg]	serum total cholesterol levels, treatment day 0 (hyperlipidemic rabbits [2])	serum total cholesterol levels, treatment day 4 (hyperlipidemic rabbits [2])	serum total cholesterol levels, treatment day 7 (hyperlipidemic rabbits [2])	serum total cholesterol levels, treatment day 10 (hyperlipidemic rabbits [2])	serum total cholesterol levels, treatment day 14 (hyperlipidemic rabbits [2])	ALP (hyperlipidemic rabbits [2]) [IU/L]	ALT (hyperlipidemic rabbits [2]) [IU/L]	AST (hyperlipidemic rabbits [2]) [IU/L]	CK (hyperlipidemic rabbits [2]) [U/L]	CREA (hyperlipidemic rabbits [2]) [µmol/L]	GLU (hyperlipidemic rabbits [2]) [mmol/L]	HDL-C (hyperlipidemic rabbits [2]) [mmol/L]	LDH (hyperlipidemic rabbits [2]) [IU/L]	LDL-C (hyperlipidemic rabbits [2]) [mmol/L]	TC (hyperlipidemic rabbits [2]) [mmol/L]	TG (hyperlipidemic rabbits [2]) [mmol/L]	also measured
COc1ccc2c(c1)CCN1Cc3c(ccc(OC)c3OS(=O)(=O)c3cccc(F)c3)CC21 (single isomer, unassigned) [128(+)]	induced ACC phosphorylation	effectively increased	strongly inhibited	2.6	28.6 ± 6.7	31.9 ± 7.5	33.9 ± 7.2	33.8 ± 7.8	34.2 ± 7.4	165.2	68.7	20.8	1172.3	97.2	7.9	3.6	47.7	29.7	34.2	1.0	–
COc1ccc2c(c1)CCN1Cc3c(ccc(OC)c3OS(=O)(=O)c3cccc(F)c3)CC21 (single isomer, unassigned) [128(−)]	induced ACC phosphorylation	effectively increased	strongly inhibited	2.7	28.5 ± 6.3	29.9 ± 8.0	29.0 ± 7.9	27.9 ± 5.2	29.7 ± 4.9	155.5	50.2	20.8	997.5	105.2	7.9	3.5	50.3	24.4	29.7	0.9	adverse effect / toxicities (hyperlipidemic rabbits [3]): absence of any adverse effect; TC and LDL-C reduction (hyperlipidemic rabbits [2]; 14 days treatment, summary in words): strong TC and LDL-C reduction
COc1cc2c(cc1OC)C1Cc3ccc(OC)c(OS(=O)(=O)c4ccccc4)c3CN1CC2 (centres unmarked) [Compound 91, 2,3,10-trimethoxy-5,6,7,8,13,13a-hexahydroisoquinolino[2,1-b]isoquinolin-9-yl benzenesulfonate]	–	–	–	–	–	–	–	–	–	–	–	–	–	–	–	–	–	–	–	–	LDLR mRNA expression (LDLR mRNA): dose-dependently increases; PCSK9 mRNA expression (PCSK9 mRNA): inhibits
